Test results from patent EP2647634A1, “Indole-pyrimidine derivatives and their therapeutic uses” (NOSCIRA, S.A., priority 2012, dated 2013).

The molecules below were run against T1, Human recombinant Cdk5/p35 heterodimer (Homo sapiens, UniProt Q00535) (assay: Cdk5 assay (luminescent detection of ADP, ADP Glo)). Conditions: 10 nM enzyme, 10 µM ATP, 2 µM histone H1, 40 min incubation.
T1 construct: purchased Life Technologies
T1 sequence (Q00535 whole entry): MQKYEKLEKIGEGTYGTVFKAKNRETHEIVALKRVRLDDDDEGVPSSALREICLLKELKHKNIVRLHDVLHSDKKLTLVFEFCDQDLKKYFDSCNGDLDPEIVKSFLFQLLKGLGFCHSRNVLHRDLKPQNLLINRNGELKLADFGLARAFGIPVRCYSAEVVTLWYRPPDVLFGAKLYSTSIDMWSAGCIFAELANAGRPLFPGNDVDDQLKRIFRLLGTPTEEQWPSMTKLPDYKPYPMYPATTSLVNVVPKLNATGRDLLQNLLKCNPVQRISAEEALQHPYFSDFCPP
T1 sequence (Q15078 whole entry partner): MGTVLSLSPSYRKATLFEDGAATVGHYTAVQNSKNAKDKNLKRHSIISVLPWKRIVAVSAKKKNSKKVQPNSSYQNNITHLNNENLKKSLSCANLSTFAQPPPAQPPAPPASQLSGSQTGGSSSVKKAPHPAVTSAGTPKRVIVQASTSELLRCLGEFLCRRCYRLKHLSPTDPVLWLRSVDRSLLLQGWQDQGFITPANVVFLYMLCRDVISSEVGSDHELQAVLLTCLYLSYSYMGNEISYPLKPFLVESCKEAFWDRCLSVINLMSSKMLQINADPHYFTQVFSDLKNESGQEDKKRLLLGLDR
Assay type: biochemical
Protocol: (§1) The enzymatic activity of Cdk5 is determined with a commercial system, available from Promega (Madison, WI, USA) based on the luminescent detection of ADP, the byproduct of the kinase reaction. Human recombinant Cdk5/p35 heterodimer (purchased from Life Technologies, Carlsbad, CA, USA) is used as the enzyme source. At the end of the enzymatic reaction the remaining ATP is destroyed and afterwards the ADP produced during the kinase reaction is converted into ATP, which is further converted into light using a suitable luciferase. Therefore, the luminescent signal positively correlates with kinase activity. The assay is performed in 96-well conical bottom black plates, in a final volume of 12 µl with 10 nM enzyme concentration in 40 mM Tris-HCl pH 7.4, 20 mM MgCl2 and 0.01% bovine serum albumin using 10 µM ATP and 2 µM substrate. […] The assay is carried out in the presence of different concentrations of the tested compound, at a final 1% (v/v) DMSO concentration. After a 40 min incubation, at room temperature, 12 µl of a commercial "ADP Glo" solution (from Promega) is added to remove the remaining ATP and a subsequent 40 min incubation at room temperature is performed before adding 24 µl of a suitable "detection reagent" (also supplied by Promega) needed to carry out the transformation of ADP into ATP and its conversion into light by the luciferase enzyme included in the reagent. After a final 30 min incubation at room temperature luminescence is monitored in a suitable plate reader. […] For that purpose the data were fitted to a version of the classical 4-parameters isotherm equation using the nonlinear regression function of GraphPad™ Prism 5.0 (GraphPad Software Inc.).
With `COC(=O)c1ccc2c(-c3ccnc(N)n3)c(O)[nH]c2c1` [Compound 7, 3-(2-Amino-4-pyrimidinyl) -2-oxoindole-6-carboxylic acid methyl ester] the “Cdk5 inhibition pEC50 average” value was 6.8. With `Nc1nccc(-c2c(O)[nH]c3ccc(Br)cc23)n1` [Compound 3, 3-(2-Amino-4-pyrimidinyl)-5-Bromo-2-oxoindole] the “Cdk5 inhibition pEC50 average” value was 8.3. With `CS(=O)(=O)c1ccc2c(-c3ccnc(N)n3)c(O)[nH]c2c1` [Compound 2, 3-(2-Amino-4-pyrimidinyl) -6-methanesulfonyl-2-oxoindole] the “Cdk5 inhibition pEC50 average” value was 6.7. For `Nc1nccc(-c2c(O)[nH]c3ccc([N+](=O)[O-])cc23)n1` [Compound 6, 3-(2-Amino-4-pyrimidinyl) -5-Nitro-2-oxoindole], the “Cdk5 inhibition pEC50 average” value was 6.9. With `Nc1nccc(-c2c(O)[nH]c3ccc(F)cc23)n1` [Compound 4, 3-(2-Amino-4-pyrimidinyl) -5-Fluoro-2-oxoindole] the “Cdk5 inhibition pEC50 average” value was 7.5. `Nc1nccc(-c2c(O)[nH]c3ccc(F)c(F)c23)n1` [Compound 8, 3-(2-Amino-4-pyrimidinyl)-4,5-difluoro-2-oxoindol] was tested, and the “Cdk5 inhibition pEC50 average” value was 7.6. In the case of `Nc1nccc(-c2c(O)[nH]c3ccccc23)n1` [Compound 1, 3-(2-Amino-4-pyrimidinyl)-2-oxoindole], the “Cdk5 inhibition pEC50 average” value is reported as 8.2. With `Nc1nccc(-c2c(O)[nH]c3ccc(Cl)cc23)n1` [Compound 5, 3-(2-Amino-4-pyrimidinyl) -5-Chloro-2-oxoindole] the “Cdk5 inhibition pEC50 average” value was 8.8.

Same assay, conditions: 10 nM enzyme, 10 µM ATP, 2 µM histone H1, 40 min incubation; read-out: Cdk5 inhibition pEC50 average (converted)
With `Cc1cc(-c2c(O)[nH]c3ccccc23)nc(N)n1` [Comparative example, reference compound] the EC50 was 501 nM.

These molecules were tested against T2, Human recombinant GSK-3β (Homo sapiens, UniProt P49841) (assay: GSK-3β assay (luminescent detection of ADP)). Conditions: 4 nM enzyme, 5 µM ATP, 15 µM substrate peptide, 40 min incubation.
T2 construct: purchased Millipore
T2 sequence (P49841 whole entry): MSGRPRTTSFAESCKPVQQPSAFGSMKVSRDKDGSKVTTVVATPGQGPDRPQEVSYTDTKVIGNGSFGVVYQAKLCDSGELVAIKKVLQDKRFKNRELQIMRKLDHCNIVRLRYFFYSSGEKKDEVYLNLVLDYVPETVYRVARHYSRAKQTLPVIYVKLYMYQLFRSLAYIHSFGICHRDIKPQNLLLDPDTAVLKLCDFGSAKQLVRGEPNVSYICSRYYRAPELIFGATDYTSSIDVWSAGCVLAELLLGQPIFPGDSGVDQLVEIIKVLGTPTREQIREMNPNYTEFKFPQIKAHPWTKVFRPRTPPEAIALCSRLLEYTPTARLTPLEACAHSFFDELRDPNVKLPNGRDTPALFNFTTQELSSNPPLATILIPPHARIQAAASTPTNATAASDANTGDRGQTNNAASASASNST
Assay type: biochemical
Protocol: as §1
The enzymatic activity of GSK-3β is determined with the same commercial system described above based on the luminescent detection of ADP. Human recombinant GSK-3β (purchased from Millipore) is used as the enzyme source. […] The assay is carried out in the presence of different concentrations of the tested compound at a final 1% (v/v) DMSO concentration.
`COC(=O)c1ccc2c(-c3ccnc(N)n3)c(O)[nH]c2c1` [Compound 7, 3-(2-Amino-4-pyrimidinyl) -2-oxoindole-6-carboxylic acid methyl ester] was tested, and the “GSK3β inhibition pEC50 average” value was 6.6. In the case of `Nc1nccc(-c2c(O)[nH]c3ccc(Br)cc23)n1` [Compound 3, 3-(2-Amino-4-pyrimidinyl)-5-Bromo-2-oxoindole], the “GSK3β inhibition pEC50 average” value is reported as 7.8. In the case of `CS(=O)(=O)c1ccc2c(-c3ccnc(N)n3)c(O)[nH]c2c1` [Compound 2, 3-(2-Amino-4-pyrimidinyl) -6-methanesulfonyl-2-oxoindole], the “GSK3β inhibition pEC50 average” value is reported as 5.3. `Nc1nccc(-c2c(O)[nH]c3ccc([N+](=O)[O-])cc23)n1` [Compound 6, 3-(2-Amino-4-pyrimidinyl) -5-Nitro-2-oxoindole] was tested, and the “GSK3β inhibition pEC50 average” value was 6.7. With `Nc1nccc(-c2c(O)[nH]c3ccc(F)cc23)n1` [Compound 4, 3-(2-Amino-4-pyrimidinyl) -5-Fluoro-2-oxoindole] the “GSK3β inhibition pEC50 average” value was 7.5. For `Nc1nccc(-c2c(O)[nH]c3ccc(F)c(F)c23)n1` [Compound 8, 3-(2-Amino-4-pyrimidinyl)-4,5-difluoro-2-oxoindol], the “GSK3β inhibition pEC50 average” value was 7.6. In the case of `Nc1nccc(-c2c(O)[nH]c3ccccc23)n1` [Compound 1, 3-(2-Amino-4-pyrimidinyl)-2-oxoindole], the “GSK3β inhibition pEC50 average” value is reported as 6.9. For `Nc1nccc(-c2c(O)[nH]c3ccc(Cl)cc23)n1` [Compound 5, 3-(2-Amino-4-pyrimidinyl) -5-Chloro-2-oxoindole], the “GSK3β inhibition pEC50 average” value was 7.9.

Same assay, conditions: 4 nM enzyme, 5 µM ATP, 15 µM substrate peptide, 40 min incubation; read-out: GSK3β inhibition pEC50 average (converted)
Work on `Cc1cc(-c2c(O)[nH]c3ccccc23)nc(N)n1` [Comparative example, reference compound] yielded an EC50 of 398 nM.

The molecules below were run against T3, Human recombinant CK1ε (Homo sapiens, UniProt P49674) (assay: CK1ε assay (luminescent detection of ADP)). Conditions: 10 nM enzyme, 50 µM ATP, 50 µM substrate peptide, 40 min incubation.
T3 construct: purchased Life Technologies
T3 sequence (P49674 whole entry): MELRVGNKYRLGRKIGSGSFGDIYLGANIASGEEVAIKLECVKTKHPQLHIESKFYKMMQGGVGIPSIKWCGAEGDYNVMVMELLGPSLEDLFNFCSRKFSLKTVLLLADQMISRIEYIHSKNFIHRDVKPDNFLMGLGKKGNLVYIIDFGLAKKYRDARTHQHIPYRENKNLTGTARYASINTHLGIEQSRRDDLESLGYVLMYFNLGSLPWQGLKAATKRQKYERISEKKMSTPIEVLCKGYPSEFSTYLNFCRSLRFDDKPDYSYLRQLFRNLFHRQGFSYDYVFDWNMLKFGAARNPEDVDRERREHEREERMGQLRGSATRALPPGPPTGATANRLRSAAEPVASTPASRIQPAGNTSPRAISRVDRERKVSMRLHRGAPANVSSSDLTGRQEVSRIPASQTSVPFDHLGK
Assay type: biochemical
Protocol: as §1
The enzymatic activity of CK1ε is determined with the same commercial system described above based on the luminescent detection of ADP. Human recombinant CK1ε (purchased from Life Technologies) is used as the enzyme source. The assay is performed in 96-well conical bottom black plates, in a final volume of 12 µl with 10 nM enzyme concentration in 40 mM Tris-HCl pH 7.4, 20 mM MgCl2 and 0.01% bovine serum albumin using 50 µM ATP and 50 µM substrate peptide. The latter is a synthetic peptide provided by AnaSpec (Fremont, CA, USA) under the commercial name "CK1 peptide substrate" and it is based on the sequence of rabbit muscle glycogen synthase with Ser7 phosphorylated (the exact sequence of the peptide is KRRRAL(pS)VASLPGL, where (pS) denotes phospho-Ser). The assay is carried out in the presence of different concentrations of the tested compound at a final 1% (v/v) DMSO concentration.
For `COC(=O)c1ccc2c(-c3ccnc(N)n3)c(O)[nH]c2c1` [Compound 7, 3-(2-Amino-4-pyrimidinyl) -2-oxoindole-6-carboxylic acid methyl ester], the “CK1 inhibition pEC50 average” value was 5.9. In the case of `Nc1nccc(-c2c(O)[nH]c3ccc(Br)cc23)n1` [Compound 3, 3-(2-Amino-4-pyrimidinyl)-5-Bromo-2-oxoindole], the “CK1 inhibition pEC50 average” value is reported as 6.1. For `CS(=O)(=O)c1ccc2c(-c3ccnc(N)n3)c(O)[nH]c2c1` [Compound 2, 3-(2-Amino-4-pyrimidinyl) -6-methanesulfonyl-2-oxoindole], the “CK1 inhibition pEC50 average” value was 5.4. For `Nc1nccc(-c2c(O)[nH]c3ccc([N+](=O)[O-])cc23)n1` [Compound 6, 3-(2-Amino-4-pyrimidinyl) -5-Nitro-2-oxoindole], the “CK1 inhibition pEC50 average” value was 4.7. For `Nc1nccc(-c2c(O)[nH]c3ccc(F)cc23)n1` [Compound 4, 3-(2-Amino-4-pyrimidinyl) -5-Fluoro-2-oxoindole], the “CK1 inhibition pEC50 average” value was 6.5. `Nc1nccc(-c2c(O)[nH]c3ccc(F)c(F)c23)n1` [Compound 8, 3-(2-Amino-4-pyrimidinyl)-4,5-difluoro-2-oxoindol] was tested, and the “CK1 inhibition pEC50 average” value was under 4. In the case of `Nc1nccc(-c2c(O)[nH]c3ccccc23)n1` [Compound 1, 3-(2-Amino-4-pyrimidinyl)-2-oxoindole], the “CK1 inhibition pEC50 average” value is reported as 6.1. In the case of `Nc1nccc(-c2c(O)[nH]c3ccc(Cl)cc23)n1` [Compound 5, 3-(2-Amino-4-pyrimidinyl) -5-Chloro-2-oxoindole], the “CK1 inhibition pEC50 average” value is reported as 6.7.

Same assay, conditions: 10 nM enzyme, 50 µM ATP, 50 µM substrate peptide, 40 min incubation; read-out: CK1 inhibition pEC50 average (converted)
With `Cc1cc(-c2c(O)[nH]c3ccccc23)nc(N)n1` [Comparative example, reference compound] the EC50 was 3160 nM.

Each molecule was assayed on phosphorylation at the Ser-396 residue of Tau protein in human neuroblastoma SH-SY5Y cells (assay: Cellular assay: phosphorylation at Ser-396 of Tau protein (ELISA)). Conditions: 16 h incubation with compound, read-out: pSer396-Tau 16h pEC50 average (converted).
Assay type: cell-based
Protocol: The effect of the compounds in cells is determined by monitoring the level of phosphorylation at the Ser-396 residue of Tau protein in human neuroblastoma SH-SY5Y cells. Cells are grown in 96-well plates, 30,000 cells per well in a volume of 100 µl of 1:1 MEM:Ham's F12 medium including 10% (v/v) fetal bovine serum, 100 U/ml penicillin, 100 µg/ml streptomycin and 1% (v/v) 100-fold concentrated commercial stock of non-essential aminoacids (Gibco, Carlsbad, CA, USA), and incubated at 37°C during 24 h. Then, the corresponding amount of test compound is added to the wells to reach the desired concentration in 1% (v/v) DMSO. The system is incubated at 37°C during 16 h and afterwards cells are harvested, washed with phosphate buffer saline and incubated during 30 min on ice with 120 µl per well of "lysis buffer" (10 mM Tris-HCl pH 7.4, 100 mM NaCl, 1 mM EDTA, 2 mM sodium orthovanadate, 1% (v/v) Triton X-100, 10% (v/v) glycerol, 0.1% (w/v) sodium dodecyl sulfate, 0.5 % (w/v) sodium deoxycholate, 4% (v/v) 25-fold concentrated commercial stock of protease inhibitors (Roche, Basel, Switzerland) and 1 mM phenylmethylsulfonyl fluoride). 60 µl of this mixture is then placed in an empty 96-well plate and the levels of Ser-396 phosphorylation are determined using a commercial ELISA kit (Biosource, Carlsbad, CA, USA) following manufacturer's instructions. The levels of phosphrylation are expressed as percentage values after normalizing them to those in untreated cells and those values are used to calculate the pEC50s as described above.
For `Nc1nccc(-c2c(O)[nH]c3ccc([N+](=O)[O-])cc23)n1` [Compound 6, 3-(2-Amino-4-pyrimidinyl) -5-Nitro-2-oxoindole], the EC50 was 10000 nM. Molecule `Nc1nccc(-c2c(O)[nH]c3ccc(F)cc23)n1` [Compound 4, 3-(2-Amino-4-pyrimidinyl) -5-Fluoro-2-oxoindole] has an EC50 of 1260 nM. `Nc1nccc(-c2c(O)[nH]c3ccc(Cl)cc23)n1` [Compound 5, 3-(2-Amino-4-pyrimidinyl) -5-Chloro-2-oxoindole] was tested, and the EC50 was 316 nM.
